According to patent US4590284A, “Pineapple ketone 1'-alkoxyalkyl derivatives” (Hercules Incorporated, priority 1985, dated 1986):
Where two headings read alike, the source gives them in different places. One block for each compound: values may come before it.

How the values were obtained:
Water solubility = type: physicochemical; conditions: in words
[1] = 0 min
Experimental: (§1) The disappearance of both compounds is measured by gas chromatography using a six foot long, one-eighth inch diameter column having 15 percent by weight polyethylene glycol with an average molecular weight of 20,000 (Carbowax-20 M, Trademark) on particles of 80 by 100 mesh diatomaceous earth (Chromasorb W, Trademark) and using helium feed at 28 cc. per minute while heating from 100° to 210° C. at 8° per minute. Ten percent solutions of each compound in toluene are stirred at equal rates in the presence of air at ambient temperatures.

[2] = cited from earlier work
physchem = conditions: toluene
Experimental: as §1

[3] = fragranced soaps, six months of storage; cited from earlier work

- water solubility (Water solubility): water soluble
- % Remaining [1]: 100%
- remaining at 15 h (physchem): 24%
- remaining at 41 h (physchem): 18%
- remaining at 115 h (physchem): 6%
- remaining at 138 h (physchem): 4%
Compound: CC1=C(O)C(=O)C(C)O1 (stereo not drawn) [Pineapple Ketone, 2,5-dimethyl-4-hydroxy-3(2H)-furanone]
- half-life ([2]; pH 4): 120 days
- half-life ([2]; pH 7): 12 days

- % Remaining [1]: 100%
- remaining at 17 h (physchem): 95%
- remaining at 41 h (physchem): 93%
- remaining at 116 h (physchem): 44%
- remaining at 137 h (physchem): 38%
Compound: CCOC(C)OC1=C(C)OC(C)C1=O (stereo not drawn) [2,5-Dimethyl-4-[(1'-ethoxy)ethoxy]-3(2H)-furanone]

Compound: CC=Cc1ccc(O)c(OC)c1 [isoeugenol]
- stability to discoloration [3]: causes discoloration

Compound: CC=Cc1ccc(OC(C)OCC)c(OC)c1 (stereo not drawn) [1'-ethoxyethyl ether of isoeugenol]
- stability to discoloration [3]: stable to discoloration
